Reference: US8512734B2, “Biocompatible coating of medical devices” (Katholieke Universiteit Leuven, K.U.Leuven R&D, priority 2004, dated 2013)

Assay: In-vitro release of β-estradiol from loaded zeogrid in simulated body fluid (HPLC)
Type: physicochemical
Conditions: 10 mg loaded zeogrid in 20 ml SBF, room temperature, continuous stirring
Experimental: Loading of the zeogrid sample with β-estradiol proceeds as follows. 50 mg β-estradiol is dissolved in 100 ml methylenechloride. 500 mg of zeogrid is suspended in the solution. Everything is stirred during 24 hours in a closed container. After 24 hours, the container is opened and the methylenechloride is evaporated at room temperature. The resulting powder is further dried and kept during 24 hours under reduced pressure to remove the solvent.
Release of β-estradiol from zeogrids. Simulated body fluid (SBF) was used as dissolution medium. SBF was prepared by first dissolving 1% SLS (Sodium lauryl sulphate) and 0.90% NaCl in distilled water. The solution was mixed with ethanol in a volume ratio solution:ethanol of 24:1.
The in-vitro release experiments were carried out at room temperature by dispersing 10 mg quantities of the loaded zeogrid into 20 ml quantities of SBF. In order to avoid limitations of the delivery rate by external diffusion constraints, continuous stirring is maintained. The release profile was obtained by measuring drug concentration in the fluid after different times by means of HPLC.

## C[C@]12CC[C@@H]3c4ccc(O)cc4CC[C@H]3[C@@H]1CC[C@@H]2O [β-estradiol]
  Time after which release of β-estradiol from zeogrid is completed: 30 min
